Measured values as given in publication PMC10447463, “Data-mining unveils structure–property–activity correlation of viral infectivity enhancing self-assembling peptides” (Nature Communications, 2023).
Where two headings read alike, the source gives them in different places.

Experiments:
[1] = Zeta-potential measurement; assay type: physicochemical; settings: for Zeta-pot. / mV: zeta potential of peptide, Fig S15 source data
How it was run: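 Surface charge of aggregated peptides: 1 mg/mL solutions in PBS (pH 7.4) incubated 1 d at RT, diluted into 1 mM KCl just before reading. Electrophoretic mobility converted to zeta potential by the Smoluchowski formula; triplicate measurements from two separate experiments averaged.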

[2] = Turbidity, derived count rate of scattered light; assay type: physicochemical; settings: for Log Count Rate: log of derived count rate; for Count Rate: turbidity
How it was run: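 One-day room-temperature aggregation at 1 mg/mL in PBS (pH 7.4) preceded measurement; samples then went into 1 mM KCl. Triplicates per sample, two independent experiments averaged.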

[3] = category derived from the zeta potential
[4] = category 1 or 0 derived from the count rate, key not given
[5] = derived count rate of scattered light
[6] = derived count rate of scattered light, mean, std deviation in next column
[7] = category 1 or 0 from count rate, key not given
[8] = derived count rate of scattered light, mean, std deviation in separate column
[9] = Fig S8 panels A, C, asymmetric log errors
[10] = Fig S8 panels B, D, derived count rate of scattered light

Row | Substance | Zeta Pot. / mV [1] [mV] | Zeta category ( +1 = if > 4 mV;-1 = if < -4 mV; 0 = -4mV to 4 mV) [1] | Zeta category ( +1 = if > 4 mV;-1 = if < -4 mV; 0 = -4mV to 4 mV) [1, 3] | Zeta Pot. / mV ([1]; mean, Std Zeta in next column) [mV] | Zeta-pot. / mV [1] [mV] | Zeta Count Rate Category ([2]; category 1 / 0, no key given) | Zeta Count Rate Category [2, 4] | Zeta Count Rate / kcps [2, 5] [kcps] | Zeta Count Rate / kcps [2, 6] [kcps] | Zeta category ( +1 = if > 4 mV;-1 = if < -4 mV; 0 = -4mV to 4 mV) ([1]; category from zeta potential) | Zeta Count Rate Category [2, 7] | Zeta Pot. / mV ([1]; mean, Std in separate column) [mV] | Zeta Count Rate Category ([2]; category 1/0, no key printed) | Zeta Count Rate / kcps [2, 8] [kcps] | Zeta Count Rate / kcps ([2]; derived count rate from zeta measurement, mean) [kcps] | Zeta Count Rate Category ([2]; key not given) | Log Count Rate [2, 9] | Log Count Rate ([2]; Fig S8 panels B, D) | Count Rate [2, 10]
1 | KLKQLL [KM27 / psis14] | -8.46 | -1 (-1 = if < -4 mV) | -1 (-1 = if < -4 mV) | -8.46 | -8.46 | 1 | 1 | 319.9 | 319.9 | – | – | – | – | – | – | – | – | – | –
2 | KFKQFFNMWQ [JG5] | -3.43 | 0 (0 = -4mV to 4 mV) | – | -3.43 | -3.43 | 1 | – | 236.9 | 236.9 | 0 (0 = -4mV to 4 mV) | 1 | – | – | – | – | – | – | – | –
3 | CKIKIQINMW [TM86] | – | 1 (+1 = if > 4 mV) | – | 18.3 | 18.3 | – | – | – | 4915 | 1 (+1 = if > 4 mV) | 1 | 18.3 | 1 | 4915 | – | – | – | – | –
4 | QCKIKQIINM [CK5] | 10.4 | 1 (+1 = if > 4 mV) | – | 10.4 | 10.4 | 1 | – | 20551.06667 | 20551.06667 | 1 (+1 = if > 4 mV) | 1 | 10.4 | – | 20551.06667 | – | – | – | – | –
5 | KIKQIINM [JGA2] | – | 1 (+1 = if > 4 mV) | – | 16.3 | 16.3 | – | – | – | 2481 | 1 (+1 = if > 4 mV) | 1 | 16.3 | – | – | 2481 | 1 | – | – | –
6 | KIKIKIKIYYYY [JR7] | – | – | 1 (+1 = if > 4 mV) | 13.3 | 13.3 | – | 1 | – | 9918 | – | – | – | – | – | – | – | – | – | –
7 | MKIKIQINMWQ [TM52] | – | 1 (+1 = if > 4 mV) | – | 10.8 | 10.8 | – | – | – | 1475 | 1 (+1 = if > 4 mV) | 1 | 10.8 | 1 | 1475 | – | – | – | – | –
8 | MKIKIQINM [TM41] | – | 1 (+1 = if > 4 mV) | – | 9.13 | 9.13 | – | – | – | 981.3 | – | – | – | 1 | – | – | – | – | – | –
9 | RGDKIKIQI [MG14] | – | 0 (0 = -4mV to 4 mV) | – | -0.899 | -0.899 | – | – | – | 298.1 | 0 (0 = -4mV to 4 mV) | 1 | -0.899 | – | 298.1 | – | – | – | – | –
10 | KIKIKIQINMWQ [VH9] | – | – | – | 13.1 | 13.1 | – | – | – | 1603.1 | 1 (+1 = if > 4 mV) | 1 | – | – | – | – | – | – | – | –
11 | KWKWQW [KB3] | – | 1 (+1 = if > 4 mV) | – | 7.55 | 7.55 | – | – | – | 1545 | – | – | – | 1 | – | – | – | 3.189 | 3.189 | 1544.87
12 | KFKFQFW [TM71] | 6.49 | 1 (+1 = if > 4 mV) | 1 (+1 = if > 4 mV) | 6.49 | 6.49 | 1 | 1 | 121.9 | 121.9 | – | – | 6.49 | – | 121.9 | – | – | – | – | –
13 | KAKAKAQA [TG15] | -9.01 | -1 (-1 = if < -4 mV) | – | -9.01 | -9.01 | 0 | – | 76.93 | 76.93 | -1 (-1 = if < -4 mV) | 0 | – | – | – | – | – | – | – | –
14 | HHHHKIKIKIKIYYYY [TM6] | 13.2 | 1 (+1 = if > 4 mV) | 1 (+1 = if > 4 mV) | 13.2 | 13.2 | 1 | 1 | 12792.53333 | 12792.53333 | – | – | – | – | – | – | – | 4.107 | 4.107 | 12792.5
15 | CKFKFQFW [TM72] | – | – | 1 (+1 = if > 4 mV) | 15.2 | 15.2 | – | 1 | – | 29210.5 | – | – | – | – | – | – | – | 4.466 | 4.466 | 29210.5
16 | QCKIKQII [CK6] | 11 | 1 (+1 = if > 4 mV) | – | 11 | 11 | 1 | – | 301 | 301 | 1 (+1 = if > 4 mV) | 1 | 11 | – | 301 | – | – | – | – | –
17 | QCKFKQFF [CK12] | 4.94 | 1 (+1 = if > 4 mV) | 1 (+1 = if > 4 mV) | 4.94 | 4.94 | 1 | 1 | 225.4 | 225.4 | – | – | 4.94 | – | 225.4 | – | – | – | – | –
18 | CQFQFQF [QBL4] | – | -1 (-1 = if < -4 mV) | – | -24.8 | -24.8 | – | – | – | 7929 | – | – | – | 1 | – | – | – | 3.899 | 3.899 | 7928.97
19 | QCKFKFQF [CK9] | – | 1 (+1 = if > 4 mV) | – | 12.2 | 12.2 | – | – | – | 2669 | 1 (+1 = if > 4 mV) | 1 | 12.2 | 1 | 2669 | – | – | – | – | –
20 | KLKLQLL [TG4 / (KM2)] | -4.93 | -1 (-1 = if < -4 mV) | -1 (-1 = if < -4 mV) | -4.93 | -4.93 | 0 | 0 | 72.67 | 72.67 | – | – | – | – | – | – | – | – | – | –
21 | CKWKWQW [KB4] | – | 1 (+1 = if > 4 mV) | – | 14.7 | 14.7 | – | – | – | 7511 | – | – | – | 1 | – | – | – | 3.876 | 3.876 | 7511.27
22 | CKFKQFFNM [CK14] | 15.2 | 1 (+1 = if > 4 mV) | 1 (+1 = if > 4 mV) | 15.2 | 15.2 | 1 | 1 | 27264.3 | 27264.3 | – | – | 15.2 | – | 27264.3 | – | – | 4.436 | 4.436 | 27264.3
23 | RGDSKIKIQIC [TM113 / RC11] | – | – | – | 15.1 | 15.1 | – | – | – | 2699 | 1 (+1 = if > 4 mV) | 1 | – | – | – | – | – | – | – | –
24 | CKYKYQY [KB2] | – | 0 (0 = -4mV to 4 mV) | – | 1.49 | 1.49 | – | – | – | 1061 | – | – | – | 1 | – | – | – | – | – | –
